# Patent US20260167641A1, “CRYSTAL FORM OF IMIDAZOPYRAZINE DERIVATIVE, PREPARATION METHOD THEREFOR AND USE THEREOF” (TRANSTHERA SCIENCES (NANJING), INC., priority 2022, published 2026)
# Experiments:
# [1] = Solubility test in pH 4.5 acetate buffer solution; format: physicochemical
# Experimental: Appropriate amounts of crystal forms I, II, III, and the compound of formula (I) were weighed and placed into 15 mL centrifuge tubes separately. A pH 4.5 acetate buffer was added to each tube to prepare saturated solutions. The tubes were sealed and placed in a water bath thermostatic oscillator to shake at 37° C. and a rotation speed of 200 rpm for 24 h. After centrifugation, the supernatants were collected and diluted to the corresponding multiples. The concentrations were measured. The detection was conducted according to the 2020 edition of the Chinese Pharmacopoeia.
# [2] = Pharmacokinetic evaluation test in rats; format: in vivo, SD rats; conditions: p.o. 100 mg/kg
# Experimental: • Animals: male SD rats • Animal administration and sample collection: Crystal forms I, II, and III were each dissolved in a mixture of 20% PEG400+80% (20% Captisol in 0.5% MC) to prepare administration formulation suspensions. The administration formulations were intragastrically administered to the SD rats at a dose of 100 mg/kg. Blood samples were collected at time points of 15 min, 30 min, 1 h, 2 h, 4 h, 6 h, 8 h, 24 h, 48 h, 72 h, and […] after administration.
# One day before administration, the animals underwent jugular vein catheterization. After administration, about 300 μL of blood samples were collected via the jugular vein and then placed into anticoagulation tubes containing EDTA-K2. The blood samples were centrifuged at 4° C. and 8000 rpm for 10 min to yield plasma samples, which were prepared within 30 min after blood sample collection. The plasma samples were stored in a refrigerator at −80° C. before tests.
# The samples to be tested were taken out from the refrigerator at −80° C., naturally thawed at room temperature, and then vortexed for 5 min. 20 μL of each of the 20-fold diluted plasma samples was precisely pipetted into a 1.5 mL centrifuge tube, and 300 μL of an internal standard working solution at a concentration of 10 ng/mL was added. The mixture was uniformly mixed, vortexed for 5 min, and then centrifuged at 12000 rpm for 5 mun.
# 50 μL of the supernatant was precisely pipetted into a 96-well plate to which water was added at 150 μL/well in advance, uniformly mixed by vortexing for 5 min, and analyzed by LC-MS/MS.
# The sample to be tested was taken out from the refrigerator at −80° C., naturally thawed at room temperature, and then vortexed for 5 min. 2 μL of the plasma sample was precisely pipetted and then added, together with 28 μL of blank plasma, to a 1.5 mL centrifuge tube, and 450 μL of an internal standard working solution (a solution of tolbutamide in acetonitrile) at a concentration of 100 ng/mL was added. The mixture was uniformly mixed, vortexed for 5 min, and then centrifuged at 12000 rpm for 5 min. 50 μL of the supernatant was precisely pipetted into a 96-well plate to which water was added at 150 μL/well in advance, uniformly mixed by vortexing for 5 min, and analyzed by LC-MS/MS.
# The test compound concentrations were output by Analyst 1.7.1 of AB Sciex. Parameters such as mean, standard deviation, and coefficient of variation were calculated by Microsoft Excel. PK parameters were calculated by Pharsight Phoenix 8.2 software NCA (Tmax was in median).
# [3] = Stability evaluation under influencing factors; format: physicochemical
# Experimental: Appropriate amounts of crystal forms I, II. III, and the compound of formula (I) were taken and exposed to conditions of 60° C., RH (relative humidity) 92.5%, RH (relative humidity) 75%, and light, respectively. The samples were collected on day 30, and the purity of the samples and changes in XRPD were examined according to the 2020 edition of the Chinese Pharmacopoeia.
# [4] = Hygroscopicity test; format: physicochemical; conditions: 25° C.±1° C.
# Experimental: The experimental procedure was conducted in accordance with the guidelines for the hygroscopicity test of drugs in Chinese Pharmacopeia (2020 Edition). • 1. A dry glass weighing bottle with a stopper (outer diameter: 50 mm, height: 15 mm) was taken and placed in a thermostatic drier at 25° C.±1° C. (with a saturated ammonium chloride solution at the bottom) on the day before the test. After 24 h. the bottle was taken out, and its weight (m1) was precisely weighed. • 2. […] The total weight (m2) was precisely weighed. • 3. The weighing bottle was left open, and both the bottle and its bottle cap were placed under the constant temperature and humidity conditions described above for 24 h. • 4. The bottle was well sealed with its bottle cap, and the total weight (m3) was precisely weighed.
# [formula] • 5. Hygroscopicity characteristics and hygroscopic weight gains are defined as follows. • deliquescent: sufficient water is absorbed to form a liquid; • extremely hygroscopic: the hygroscopic weight gain is not less than 15%; • hygroscopic: the hygroscopic weight gain is less than 15% but not less than 2%; • slightly hygroscopic: the hygroscopic weight gain is less than 2% but not less than 0.2%; • non-hygroscopic or almost non-hygroscopic: the hygroscopic weight gain is less than 0.2%.
# [5] = male SD rats, mean, n = 3, 100 mg/kg
smiles,measurement,setting,value
"Nc1nccn2c(C34CCC(NC(=O)CN5CCOCC5)(CC3)C4)nc(-c3ccc(C(=O)Nc4cc(C(F)(F)F)ccn4)cc3)c12 (single isomer, unassigned) [Crystal form II, 4-(8-amino-3-(4-(2-morpholinoacetamido)bicyclo[2.2.1]heptan-1-yl)imidazo[1,5-a]pyrazin-1-yl)-N-(4-(trifluoromethyl)pyridin-2-yl)benzamide]",Solubility compared to the amorphous form,[1],higher solubility
same,Solubility,"[1]; saturated solution, 37° C., 200 rpm, 24 h",375 µg/mL
same,Pharmacokinetic properties,[2]; SD rats,very good pharmacokinetic properties
same,AUCinf—obs,[2]; [5],2545.383 µg·h/mL
same,AUClast,[2]; [5],2515.536 µg·h/mL
same,Cmax,"[2]; male, SD, rat, plasma, po, 100 mg/kg, male SD rats, mean, n = 3, read-out: Cmax",145 µg/mL
same,half-life,"[2]; male, SD, rat, plasma, po, 100 mg/kg, male SD rats, mean, n = 3, read-out: tz1/2 (terminal half-life) (converted)",7.74 h
same,Tmax,"[2]; male, SD, rat, plasma, po, 100 mg/kg, male SD rats, n = 3, Tmax in median, read-out: Tmax",2 h
same,Purity %,[3]; 0 day,99.3%
same,Crystal form identification (XRPD),"[3]; 60° C., 30 days",Consistent with day 0
same,Purity %,"[3]; 60° C., 30 days",99.3%
same,Crystal form identification (XRPD),"[3]; Light exposure, 30 days",Consistent with day 0
same,Purity %,"[3]; Light exposure, 30 days",98.8%
same,Crystal form identification (XRPD),"[3]; RH 75%, 30 days",Consistent with day 0
same,Purity %,"[3]; RH 75%, 30 days",99.3%
same,Crystal form identification (XRPD),"[3]; RH 92.5%, 30 days",Consistent with day 0
same,Purity %,"[3]; RH 92.5%, 30 days",99.3%
same,Change of crystal form (XRPD pattern),"[3]; all influencing factor conditions, 30 days",no changes in the crystal forms occurred
same,Stability compared to the amorphous form,"[3]; influencing factors, 30 days",higher stability
same,Purity decrease,"[3]; light exposure, 30 days vs day 0",0.5%
same,Hygroscopicity characteristic,[4]; 24 h,slightly hygroscopic (the hygroscopic weight gain is less than 2% but not less than 0.2%)
same,24 h percentage weight gain,[4]; saturated ammonium chloride solution,0.34%
